Reference: JPH07501070A, “3−ピリジノール誘導体およびその医薬的使用” (スミスクライン・ビーチャム・パブリック・リミテッド・カンパニー, priority 1991, dated 1993)

Tested on: guinea pig trachea [モルモット・気管]
Experiment: Bronchodilation in vitro (spontaneous tension of tracheal spirals)
Conditions: Cavia porcellus, Krebs solution, cumulative addition, read-out: IC50 (concentration inhibiting spontaneously generated tension by 50%)

CCOP(=O)(O)c1ncc(-c2ccc3ccccc3c2)cc1O [実施例1, [5−(2−ナフチル)−3−ヒドロキシ−2−ピリジル]ホスホン酸エチル]
IC50: 100 µM
